Source: US7026308B1, “Topical anti-microbial compositions” (The Procter & Gamble Company, priority 1999, dated 2006)
Blank lines part the entries; values can stand above or below the compound they belong to.

How the values were obtained:
[1] = test system: Malassezia furfur (ATCC 14521); test: Kill Rate Test (KRT) in mDixon broth; type: cell-based
Experimental: Experiments were conducted to investigate the efficacy of the composition of the present invention to inhibit the survival, growth, and proliferation of microorganisms in topical compositions. The test microorganism was Malassezia furfur. The Kill Rate Test (KRT) results are indicative of anti-fungal efficacy. Generally, the greater the inhibition of fungal growth in this test, the better the anti-fungal efficacy of the compound(s) tested. A flask containing mDixon broth medium (see Gueho, et al. Antoinie Leeuwenhoek (1996), no. 69, 337–55, which description is incorporated by reference herein) was inoculated with Malassezia furfur. Specific concentrations of active(s) were then added to the flask Samples were then withdrawn from the flask at specified time points, diluted in sterile water, and spread across the surface of a mDixon agar plate. […] The lower the CFU/ml count, the better activity the active(s) have against M. furfur. […] Experimental Procedure • 1. […] For Mg^2+, Ag^+, Mn ^2+, Bi^3+, and Na^+ Step 8 was repeated at the 24 and 48 hour time points.

[2] = test system: Malassezia furfur (ATCC 14521); test: Minimum Inhibitory Concentration (MIC) in mDixon agar; type: cell-based; conditions: for MIC (ppm of metal ion) Alone: M. furfur, 5 days 30°; for MIC (ppm of metal ion) +0.5 ppm ZPT: metal ion in combination with 0.5 ppm ZPT (sub-MIC); for MIC (ppm of metal ion) +2 ppm ZPT: metal ion in combination with 2 ppm ZPT (sub-MIC); for MIC (ppm of metal ion) +4 ppm ZPT: metal ion in combination with 4 ppm ZPT (sub-MIC)
[3] = Table 2(a), 0.05% metal salt (with 10 ppm ZPT where labelled)
[4] = Table 2(a), 0.5% metal salt (with 10 ppm ZPT where labelled)
[5] = Table 2(b), 0.05% metal salt (with 10 ppm ZPT where labelled)
[6] = Table 2(b), 0.5% metal salt (with 10 ppm ZPT where labelled)

SMILES: O=S(=O)([O-])[O-].[Mg+2] [MgSO4]
Plate Area Colonized, 0 Hours [1, 3]: 3.97E+06 mm2
Plate Area Colonized, 24 Hours [1, 3]: 4.35E+06 mm2
Plate Area Colonized, 48 Hours [1, 3]: 9.68E+06 mm2
Plate Area Colonized, 0 Hours [1, 4]: 3.97E+06 mm2
Plate Area Colonized, 24 Hours [1, 4]: 1.81E+07 mm2
Plate Area Colonized, 48 Hours [1, 4]: 9.50E+06 mm2

SMILES: O=S(=O)([O-])[O-].[Mn+2] [MnSO4]
Plate Area Colonized, 0 Hours [1, 3]: 3.97E+06 mm2
Plate Area Colonized, 24 Hours [1, 3]: 1.97E+07 mm2
Plate Area Colonized, 48 Hours [1, 3]: 5.91E+06 mm2
Plate Area Colonized, 0 Hours [1, 4]: 3.97E+06 mm2
Plate Area Colonized, 24 Hours [1, 4]: 1.16E+05 mm2
Plate Area Colonized, 48 Hours [1, 4]: 2.35E+02 mm2

SMILES: O=S(=O)([O-])[O-].[Zn+2] [ZnSO4]
Plate Area Colonized, 0 Hours [1, 5]: 2.12E+07 mm2
Plate Area Colonized, 4 Hours [1, 5]: 8.14E+07 mm2
Plate Area Colonized, 24 Hours [1, 5]: 7.22E+07 mm2
Plate Area Colonized, 48 Hours [1, 5]: 3.44E+08 mm2
Plate Area Colonized, 0 Hours [1, 6]: 2.12E+07 mm2
Plate Area Colonized, 4 Hours [1, 6]: 2.21E+07 mm2
Plate Area Colonized, 24 Hours [1, 6]: 2.69E+06 mm2
Plate Area Colonized, 48 Hours [1, 6]: 1.86E+05 mm2

SMILES: O=S(=O)([O-])[O-].[Na+].[Na+] [Na2SO4]
Plate Area Colonized, 0 Hours [1, 3]: 3.97E+06 mm2
Plate Area Colonized, 24 Hours [1, 3]: 3.75E+07 mm2
Plate Area Colonized, 48 Hours [1, 3]: 3.42E+06 mm2
Plate Area Colonized, 0 Hours [1, 4]: 3.97E+06 mm2
Plate Area Colonized, 24 Hours [1, 4]: 1.44E+07 mm2
Plate Area Colonized, 48 Hours [1, 4]: 2.95E+06 mm2

SMILES: [Cu+2] [Copper (2+)]
MIC (ppm of metal ion) Alone [2]: 5000 ppm
MIC (ppm of metal ion) +0.5 ppm ZPT [2]: 5000 ppm
MIC (ppm of metal ion) +2 ppm ZPT [2]: <0.5 ppm
MIC (ppm of metal ion) +4 ppm ZPT [2]: <0.005 ppm
MIC (ppm of metal ion) +4 ppm ZPT ([2]; listed as copper ions): less than 0.005 ppm

SMILES: [Cl][Bi]([Cl])[Cl] [BiCl3]
Plate Area Colonized, 0 Hours [1, 3]: 3.97E+06 mm2
Plate Area Colonized, 24 Hours [1, 3]: 1.96E+07 mm2
Plate Area Colonized, 48 Hours [1, 3]: 3.03E+06 mm2
Plate Area Colonized, 0 Hours [1, 4]: 3.97E+06 mm2
Plate Area Colonized, 24 Hours [1, 4]: 1.11E+06 mm2
Plate Area Colonized, 48 Hours [1, 4]: 3.42E+05 mm2

SMILES: [O-]n1ccccc1=S.[O-]n1ccccc1=S.[Zn+2] [ZPT, zinc salt of 1-hydroxy-2-pyridinethione, reference compound]
Plate Area Colonized, 0 Hours ([1]; Table 2(a), 10 ppm): 3.97E+06 mm2
Plate Area Colonized, 24 Hours ([1]; Table 2(a), 10 ppm): 2.52E+05 mm2
Plate Area Colonized, 48 Hours ([1]; Table 2(a), 10 ppm): 2.30E+03 mm2
Plate Area Colonized, 0 Hours ([1]; Table 2(b), 10 ppm): 2.12E+07 mm2
Plate Area Colonized, 4 Hours ([1]; Table 2(b), 10 ppm): 3.49E+07 mm2
Plate Area Colonized, 24 Hours ([1]; Table 2(b), 10 ppm): 6.44E+06 mm2
Plate Area Colonized, 48 Hours ([1]; Table 2(b), 10 ppm): 4.86E+05 mm2

MIC (ppm of metal ion) Alone [2]: 5000 ppm
MIC (ppm of metal ion) +0.5 ppm ZPT [2]: 500 ppm
MIC (ppm of metal ion) +2 ppm ZPT [2]: 50 ppm
MIC (ppm of metal ion) +4 ppm ZPT [2]: 5 ppm
SMILES: [Zn+2] [Zinc (2+)]

SMILES: O=S(=O)([O-])[O-].[Ag+].[Ag+] [Ag2SO4]
Plate Area Colonized, 0 Hours [1, 3]: 3.97E+06 mm2
Plate Area Colonized, 24 Hours [1, 3]: 7.46E+05 mm2
Plate Area Colonized, 48 Hours [1, 3]: 1.22E+05 mm2
Plate Area Colonized, 0 Hours [1, 4]: 3.97E+06 mm2
Plate Area Colonized, 24 Hours [1, 4]: 1.65E+06 mm2
Plate Area Colonized, 48 Hours [1, 4]: 1.00E+00 mm2

SMILES: [Hg+2] [Mercury (2+)]
MIC (ppm of metal ion) Alone [2]: 50 ppm
MIC (ppm of metal ion) +4 ppm ZPT [2]: 5 ppm

SMILES: O=S(=O)([O-])[O-].[Cu+2] [CuSO4]
Plate Area Colonized, 0 Hours [1, 5]: 2.12E+07 mm2
Plate Area Colonized, 4 Hours [1, 5]: 9.49E+07 mm2
Plate Area Colonized, 24 Hours [1, 5]: 1.81E+08 mm2
Plate Area Colonized, 48 Hours [1, 5]: 3.32E+08 mm2
Plate Area Colonized, 0 Hours [1, 6]: 2.12E+07 mm2
Plate Area Colonized, 4 Hours [1, 6]: 1.00E+00 mm2
Plate Area Colonized, 24 Hours [1, 6]: 1.00E+00 mm2
Plate Area Colonized, 48 Hours [1, 6]: 1.00E+00 mm2
